Measurements: patent publication US20110137235A1, “ULTRASONIC CANCER THERAPY ACCELERATOR” (TOTO Ltd., priority 2008, published 2011)

Conditions: 20 mmol/liter acetic acid-sodium acetate buffer pH 3.6, 40° C., 25 hr
Excerpt: The titanium oxide complex particles and the dihydroxyphenylpropionic acid obtained in Example 1 were mixed together in 1) a 20 mmol/liter acetic acid-sodium acetate buffer solution (pH=3.6), 2) a 20 mmol/liter MES buffer solution (manufactured by Dojindo; pH=6.0), and 3) a 20 mmol/liter HEPES buffer solution (manufactured by Dojindo; pH=8.1) so that the final concentration of the titanium oxide complex particles and the final concentration of the dihydroxyphenylpropionic acid in the resultant mixed solutions were 2% and 50 mmol/liter, respectively. The total volume of each of the mixed solution was adjusted to 0.8 ml.
The adjusted solutions were stirred at 40° C. for 25 hr. For each solution, an absorption spectrum was measured in an ultraviolet-visible range (200 to 600 nm) with an ultraviolet-visible spectrometer.

O=C(O)CCc1ccc(O)c(O)c1 [dihydroxyphenylpropionic acid]
Change in absorption spectrum versus zero hr: little or no change was observed in the absorption spectrum
